Drawing on US12624034B2, “Non-covalent modifiers of AKT1 and uses thereof” (Terremoto Biosciences, Inc., priority 2023, dated 2026), this text covers IC50 for 25 molecules.

Molecules are shown by their SMILES. Read-outs that look alike come from different tables or passages of the source.

The target in assay [1] is T1, AKT2 (Homo sapiens, UniProt P31751).
T1 construct: expressed in transfected cells; host or cells: HEK293
The assay is described as follows: Live cell AKT2 target engagement by NanoBRET competitive probe displacement in HEK293 cells. The format is binding. The note with it: 2 h at 37° C., read-out: AKT2 IC50.

Assay [2] addresses T2, AKT1 WT (Homo sapiens, UniProt P31749).
T2 construct: expressed in transfected cells; host or cells: HEK293
Kind of assay: Live cell AKT1 WT target engagement by NanoBRET competitive probe displacement in HEK293 cells. The note with it: 2 h at 37° C., read-out: AKT1 WT IC50. It counts as binding.

The target in assay [3] is T3, AKT1 E17K (Homo sapiens, UniProt P31749, E17K).
T3 construct: expressed in transfected cells; host or cells: HEK293
T3 sequence (P31749 whole entry E17K): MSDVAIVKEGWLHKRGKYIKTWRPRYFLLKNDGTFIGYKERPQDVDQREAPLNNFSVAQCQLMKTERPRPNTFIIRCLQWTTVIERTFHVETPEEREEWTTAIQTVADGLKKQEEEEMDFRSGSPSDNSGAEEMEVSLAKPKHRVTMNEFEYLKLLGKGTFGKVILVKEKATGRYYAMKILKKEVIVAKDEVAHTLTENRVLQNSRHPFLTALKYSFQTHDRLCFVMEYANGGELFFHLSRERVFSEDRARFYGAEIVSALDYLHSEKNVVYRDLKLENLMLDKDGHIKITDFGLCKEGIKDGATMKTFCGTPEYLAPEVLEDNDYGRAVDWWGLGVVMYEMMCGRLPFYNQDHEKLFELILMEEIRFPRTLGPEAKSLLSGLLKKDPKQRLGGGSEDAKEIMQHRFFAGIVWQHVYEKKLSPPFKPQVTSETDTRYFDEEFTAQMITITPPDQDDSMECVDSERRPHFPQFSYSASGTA
The assay is described as follows: Live cell AKT1 E17K target engagement by NanoBRET competitive probe displacement in HEK293 cells. It counts as binding. The following applies: 2 h at 37° C. Put shortly: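 IC50 derived by log(inhibitor)–response Hill fitting of BRET ratio (E600/E460), measured after adding substrate and extracellular NanoLuc inhibitor. Preceding step: 2 h, 37 °C incubation of transfected HEK293 cells (kinase–NanoLuc fusions) with diluted compound and ~EC50 ATP-competitive fluorescent tracer.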

Assay [4] relates to LAPC4 prostate cancer cells, which express the AKT1 E17K allele. The assay is described as follows: Antiproliferative effects in LAPC4 cells (CellTiter Glo, 72 h). The following applies: read-out: LAPC4 proliferation IC50. It counts as cell-based. Put shortly:
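Growth inhibition was measured by CellTiter Glo ATP luminescence after 72 h compound exposure of 1,000 seeded cells/well. The cells were AKT1 E17K-expressing LAPC4 prostate cancer cells maintained in IMDM plus 12% FBS. IC50 values came from Hill-equation fits.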

Where [5] appears, read: NanoBRET live cell target engagement, HEK293 cells.
The mark [6] stands for this setting: NanoBRET competitive probe displacement, live HEK293 cells.

T1 sequence (P31751 whole entry): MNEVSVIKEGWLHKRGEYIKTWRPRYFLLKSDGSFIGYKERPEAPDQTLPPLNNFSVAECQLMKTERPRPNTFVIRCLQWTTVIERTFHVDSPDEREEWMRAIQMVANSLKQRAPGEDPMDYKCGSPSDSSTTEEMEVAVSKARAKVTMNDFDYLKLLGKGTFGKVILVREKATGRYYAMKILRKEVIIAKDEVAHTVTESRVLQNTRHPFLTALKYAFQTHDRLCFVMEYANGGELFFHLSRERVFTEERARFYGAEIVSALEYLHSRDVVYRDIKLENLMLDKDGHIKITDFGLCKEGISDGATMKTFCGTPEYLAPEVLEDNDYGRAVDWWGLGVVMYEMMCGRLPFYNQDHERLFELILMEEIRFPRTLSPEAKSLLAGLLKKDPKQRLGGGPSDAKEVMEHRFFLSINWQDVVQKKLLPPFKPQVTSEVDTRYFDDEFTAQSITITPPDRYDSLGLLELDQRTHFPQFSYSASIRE
T2 sequence (P31749 whole entry): as the sequence (P31749 whole entry E17K) above, with K17E counted along it

With `Nc1ncccc1-c1nc2ccc(-c3ccccc3)nc2n1-c1ccc2c(c1)CC[C@@H]2NC1CCN(C(=O)C2CC2)CC1` [Compound 391], the IC50 in assay [1] (setting [5]) was determined as 103 nM; in assay [2] (setting [5]), 19.7 nM; in assay [3] (setting [5]), 257 nM; in assay [4] (Homo sapiens, LAPC4, 72 h), 2250 nM.
For `Nc1ncccc1-c1nc2ccc(-n3cccn3)nc2n1-c1ccc2c(c1)CC[C@@H]2NC1CCN(c2ccccn2)C1` (stereo partly shown) [Compound 388], the IC50 in assay [1] (setting [5]) was determined as 674 nM; in assay [2] (setting [5]) it was 28.7 nM; in assay [3] (setting [5]), 247 nM; in assay [4], 3140 nM.
Regarding `Nc1ncccc1-c1nc2ccc(-n3cccn3)nc2n1-c1ccc2c(c1)CC[C@@H]2NC(=O)c1ccc(-n2cccn2)nc1` [Compound 54, (S)—N-(5-(2-(2-aminopyridin-3-yl)-5-(1H-pyrazol-1-yl)-3H-imidazo[4,5-b]pyridin-3-yl)-2,3-dihydro-1H-inden-1-yl)-6-(1H-pyrazol-1-yl)nicotinamide], the IC50 in assay [1] (setting [5]) came to 10.7 nM; in assay [2] (setting [5]), 12 nM; in assay [3] (setting [5]), 17.4 nM; in assay [4] (Homo sapiens, LAPC4, 72 h), 207 nM.
As to `Nc1ncccc1-c1nc2ccc(-n3ccc(OCCN4CCOCC4)n3)nc2n1-c1ccc2c(c1)CC[C@@H]2NC1CCN(C(=O)C2CC2)CC1` [Compound 505], the IC50 is 547 nM in assay [1] (setting [6]); 17.6 nM in assay [2] (setting [6]); 485 nM in assay [3] (setting [6]); 4360 nM in assay [4] (Homo sapiens, LAPC4, 72 h).
Take `Nc1ncccc1-c1nc2ccc(-n3cccn3)nc2n1-c1ccc2c(c1)CC[C@@H]2NC(=O)c1ccccn1` [Compound 36, N-[(1S)-5-[2-(2-aminopyridin-3-yl)-5-(pyrazol-1-yl)imidazo[4,5-b]pyridin-3-yl]-2,3-dihydro-1H-inden-1-yl]pyridine-2-carboxamide]: the IC50 in assay [1] (setting [5]) came out at 1250 nM; in assay [2] (setting [5]) it was 58.6 nM; in assay [3] (setting [5]) it was 164 nM; in assay [4] (Homo sapiens, LAPC4, 72 h), 3460 nM.
For `Cc1ccncc1C(=O)N[C@H]1CCc2cc(-n3c(-c4cccnc4N)nc4ccc(-n5cccn5)nc43)ccc21` [Compound 31, (S)—N-(5-(2-(2-aminopyridin-3-yl)-5-(1H-pyrazol-1-yl)-3H-imidazo[4,5-b]pyridin-3-yl)-2,3-dihydro-1H-inden-1-yl)-4-methylnicotinamide], in that order: 470 nM, 33.9 nM, 366 nM and 7880 nM.
For `Nc1ncccc1-c1nc2ccc(-n3cccn3)nc2n1-c1ccc2c(c1)CC[C@@H]2NC1CCN(C(=O)c2ccccc2)CC1` [Compound 275], in that order: 1070 nM, 51 nM, 570 nM and 4380 nM.
For `Nc1ncccc1-c1nc2ccc(-n3cccn3)nc2n1-c1ccc2c(c1)CC(F)[C@@H]2NC1CCN(C(=O)C2CC2)CC1` (single isomer, unassigned) [Compound 385, 3-{3-[(1R,2*)-1-[(1-cyclopropanecarbonylpiperidin-4-yl)amino]-2-fluoro-2,3-dihydro-1H-inden-5-yl]-5-(pyrazol-1-yl)imidazo[4,5-b]pyridin-2-yl}pyridin-2-amine], in that order: 1790 nM, 34.3 nM, > 856 nM and > 7500 nM.
As to `Nc1ncccc1-c1nc2ccc(-n3cccn3)nc2n1-c1ccc2c(c1)CC[C@@H]2NC(=O)C1CC1` [Compound 37, N-[(1S)-5-[2-(2-aminopyridin-3-yl)-5-(pyrazol-1-yl)imidazo[4,5-b]pyridin-3-yl]-2,3-dihydro-1H-inden-1-yl]cyclopropanecarboxamide], the IC50 in assay [1] (setting [5]) was 7720 nM; in assay [2] (setting [5]), 175 nM; in assay [3] (setting [5]) it was > 1000 nM; in assay [4] (Homo sapiens, LAPC4, 72 h), > 10000 nM.
For `Nc1ncccc1-c1nc2ccc(-n3cccn3)nc2n1-c1ccc2c(c1)CC[C@@H]2NC1CCN(C(=O)c2ccccn2)CC1` [Compound 358], in that order: 4640 nM, 208 nM, > 1000 nM and 7530 nM.
For `COc1cc(C(=O)N[C@H]2CCc3cc(-n4c(-c5cccnc5N)nc5ccc(-n6cccn6)nc54)ccc32)c(C)cn1` [Compound 357], in that order: 20 nM, 5.79 nM, 23.8 nM and 875 nM.
For `Nc1ncccc1-c1nc2ccc(-n3cccn3)nc2n1-c1ccc2c(c1)CC[C@@H]2NC1CCN(C(=O)C2CC2)CC1` [Compound 279], in that order: 2400 nM, 45.4 nM, > 1000 nM and 9360 nM.
As for `Cc1ccc(C(=O)N[C@H]2CCc3cc(-n4c(-c5cccnc5N)nc5ccc(-n6cccn6)nc54)ccc32)cn1` [Compound 26, (S)—N-(5-(2-(2-aminopyridin-3-yl)-5-(1H-pyrazol-1-yl)-3H-imidazo[4,5-b]pyridin-3-yl)-2,3-dihydro-1H-inden-1-yl)-6-methylnicotinamide], the IC50 in assay [1] (setting [5]) worked out at 69.6 nM; in assay [2] (setting [5]), 6.46 nM; in assay [3] (setting [5]), 26.8 nM; in assay [4] (Homo sapiens, LAPC4, 72 h) it was 1060 nM.
As to `Nc1ncccc1-c1nc2ccc(-n3cccn3)nc2n1-c1ccc2c(c1)CC[C@@H]2NC(=O)c1cnc(C(F)F)cn1` [Compound 322], the IC50 in assay [1] (setting [5]) stood at 1330 nM; in assay [2] (setting [5]), 63.5 nM; in assay [3] (setting [5]) it was 274 nM; in assay [4] (Homo sapiens, LAPC4, 72 h), 2550 nM.
For the molecule `COc1cc(C(=O)N[C@H]2CCc3cc(-n4c(-c5cccnc5N)nc5ccc(-n6nccn6)nc54)ccc32)ccn1` [Compound 321], the IC50 was determined as 207 nM in assay [1] (setting [5]); 6.84 nM in assay [2] (setting [5]); 127 nM in assay [3] (setting [5]); 628 nM in assay [4] (Homo sapiens, LAPC4, 72 h).
For `CCc1cn([C@H]2CCc3cc(-n4c(-c5cccnc5N)nc5ccc(-n6cccn6)nc54)ccc32)nn1` [Compound 285], in that order: 608 nM, 23.7 nM, 39.5 nM and 2230 nM.
For `Nc1ncccc1-c1nc2ccc(-n3cccn3)nc2n1-c1ccc2c(c1)CC[C@@H]2NC1CCN(c2ccccn2)CC1` [Compound 277], in that order: 486 nM, 25.1 nM, 365 nM and 2440 nM.
On to `Nc1ncccc1-c1nc2ccc(-n3ccc(N4CCOCC4)n3)nc2n1-c1ccc2c(c1)CC[C@@H]2NC1CCN(C(=O)C2CC2)CC1` [Compound 488], for which the IC50 in assay [1] (setting [6]) came to 98 nM; in assay [2] (setting [6]) it was 7.99 nM; in assay [3] (setting [6]), 30.6 nM; in assay [4] (Homo sapiens, LAPC4, 72 h), 624 nM.
Turning to `CCc1coc(C(=O)N[C@H]2CCc3cc(-n4c(-c5cccnc5N)nc5ccc(-n6cccn6)nc54)ccc32)n1` [Compound 57, (S)—N-(5-(2-(2-aminopyridin-3-yl)-5-(1H-pyrazol-1-yl)-3H-imidazo[4,5-b]pyridin-3-yl)-2,3-dihydro-1H-inden-1-yl)-4-ethyloxazole-2-carboxamide], the IC50 in assay [1] (setting [5]) came to 52.8 nM; in assay [2] (setting [5]), 23.4 nM; in assay [3] (setting [5]), 192 nM; in assay [4] (Homo sapiens, LAPC4, 72 h), 1320 nM.
For `N#CC1(C(=O)N2CCC(N[C@H]3CCc4cc(-n5c(-c6cccnc6N)nc6ccc(-n7cccn7)nc65)ccc43)CC2)CC1` [Compound 369], the IC50 in assay [1] (setting [5]) is 5590 nM; in assay [2] (setting [5]), 117 nM; in assay [3] (setting [5]), > 1000 nM; in assay [4] (Homo sapiens, LAPC4, 72 h) it was > 10000 nM.
As to `Nc1ncccc1-c1nc2ccc(-n3cccn3)nc2n1-c1ccc2c(c1)CC[C@@H]2NC1CCN(S(=O)(=O)C2CC2)CC1` [Compound 393], the IC50 is 3850 nM in assay [1] (setting [6]); 125 nM in assay [2] (setting [6]); > 1000 nM in assay [3] (setting [6]); > 10000 nM in assay [4] (Homo sapiens, LAPC4, 72 h).
For the molecule `COc1cc(C(=O)N[C@H]2CCc3cc(-n4c(-c5cccnc5N)nc5ccc(-n6cccn6)nc54)ccc32)cc(C)n1` [Compound 280], the IC50 in assay [1] (setting [5]) was 7.09 nM; in assay [2] (setting [5]), 2.75 nM; in assay [3] (setting [5]), 33.7 nM; in assay [4] (Homo sapiens, LAPC4, 72 h), 516 nM.
For `COC1(C(F)F)CC(C(=O)N[C@H]2CCc3cc(-n4c(-c5cccnc5N)nc5ccc(-n6cccn6)nc54)ccc32)C1` (single isomer, unassigned) [Compound 10], in that order: > 10000 nM, 390 nM, > 1000 nM and > 10000 nM.
For `COc1cc(C(=O)N[C@H]2CCc3cc(-n4c(-c5cccnc5N)nc5ccc(-n6cccn6)nc54)ccc32)cc(F)c1F` [Compound 3, (S)—N-(5-(2-(2-aminopyridin-3-yl)-5-(1H-pyrazol-1-yl)-3H-imidazo[4,5-b]pyridin-3-yl)-2,3-dihydro-1H-inden-1-yl)-3,4-difluoro-5-methoxybenzamide], in that order: 132 nM, 7.21 nM, 120 nM and 1710 nM.
For `Nc1ncccc1-c1nc2ccc(-n3ccc(F)n3)nc2n1-c1ccc2c(c1)CC[C@@H]2NC1CCN(c2ccccn2)CC1` [Compound 367], in that order: 2520 nM, 74.4 nM, 735 nM and 6330 nM.
